Like-named read-outs stand apart in the source and are kept apart here. Bridge positions count the residues as written; N and C are the ends. Square brackets hold non-standard residues; d marks the D form. Peptide text beside a SMILES is read from it. * marks the point of attachment. Isonicotinoyl(2-Ph) = O=C(c1ccnc(-c2ccccc2)c1)*; X1 = CC[C@H](C)CCCCC(=O)*; Dab = NCC[C@H](N)C(=O)O; Dap = NC[C@H](N)C(=O)O
Experiments:
[1] = system: AB-3167, clinical isolate of Acinetobacter baumannii; type: cell-based
Summary of the method: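 Broth dilution MIC per CLSI (M7-A8, M100-S20, M26-A for bactericidal), 2-fold dilution series, overnight incubation, visual read of lowest concentration inhibiting growth versus drug-free control. Duplicates run; lower value reported if within 2-fold, otherwise repeated. Compounds tested as trifluoroacetate salts; QC strains and reference compounds required in range.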

[2] = system: AB-1649, polymyxin-resistant clinical isolate of Acinetobacter baumannii; type: cell-based
Summary of the method: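 Broth dilution MIC per CLSI against the polymyxin-resistant A. baumannii isolate, 2-fold dilutions, overnight incubation, visual read of lowest concentration inhibiting growth. Run in duplicate, lower value reported when within 2-fold; MBC per CLSI M26-A guideline.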

[3] = system: Pseudomonas aeruginosa strain PA01; type: cell-based
Summary of the method: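 CLSI broth dilution against P. aeruginosa PA01 with two-fold concentration steps and overnight incubation; MIC is lowest concentration visibly inhibiting growth versus drug-free control, in mg/L. Compounds tested as trifluoroacetate salts, in duplicate, lower value reported if within 2-fold; control organisms and reference compounds included.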

[4] = system: PA-1646, polymyxin-resistant clinical isolate of Pseudomonas aeruginosa; type: cell-based
Summary of the method: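 Broth dilution MIC per CLSI with 2-fold concentration steps, read visually after overnight incubation as lowest concentration inhibiting growth; duplicates within 2-fold, lower value reported, with QC strains and reference compounds. Compounds tested as trifluoroacetate salts, polymyxin B as sulfate.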

[5] = system: AB-1649, polymyxin-resistant clinical isolate of Acinetobacter baumannii; type: cell-based; remark: listed apart in the source
Summary of the method: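 MIC and MBC were measured by CLSI broth dilution methods (M7-A8, M100-S20, M26-A) against a polymyxin-resistant clinical isolate and reported in mg/L. Compounds were tested as trifluoroacetate salts, with one exception tested as the sulfate.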

[6] = system: EC-1, mouse virulent strain of Escherichia coli; type: cell-based; conditions: E. coli EC-1; overnight incubation, lower of duplicate values; trifluoroacetate salt (Example 1 and PMB sulfate)
Summary of the method: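 Broth dilution per CLSI with 2-fold concentration steps and overnight incubation. MIC is the lowest concentration visibly inhibiting growth versus drug-free control, run in duplicate with the lower value reported. Duplicates differing by >2-fold were repeated, and control strains and reference compounds had to fall within range.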

[7] = Cytotoxicity assay (LDH release), hRPTEC; type: cell-based, human; conditions: human
Summary of the method: (§1)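 hRPTEC grown 72 h in REGM, then exposed to compounds at 100, 67, 44, 30, 20 and 13 micromolar for 24 h at 37° C, 5% CO2. LDH released into supernatant measured; TC50 (micromolar) derived. Compounds tested as trifluoroacetate salts unless otherwise noted.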

[8] = system: Human Renal Proximal Tubule Epithelial cells (hRPTEC); test: Cytotoxicity assay (LDH release), hRPTEC; type: cell-based
Summary of the method: as §1

[9] = system: PA-1646, polymyxin-resistant clinical isolate of Pseudomonas aeruginosa; type: cell-based; remark: listed apart in the source
Summary of the method: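 Broth dilution MIC and bactericidal (MBC) testing per CLSI methods (M7-A8, M100-S20, M26-A) against polymyxin-resistant clinical P. aeruginosa isolate PA-1646. Compounds tested as trifluoroacetate salts, one as sulfate salt; values in mg/L.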

[10] = system: KP-3700, ESBL+ clinical isolate of Klebsiella pneumoniae; test: Minimum inhibitory concentration (MIC, CLSI), KP-3700; type: cell-based; conditions: K. pneumoniae KP-3700; overnight incubation, lower of duplicate values; trifluoroacetate salt (Example 1 and PMB sulfate)
Method: (§2) Minimum bactericidal concentration (MBC, mg/L), minimum inhibitory concentration (MIC, mg/L), and human renal proximal tubule epithelial cell line cytotoxicity concentration 50% (hRPTEC, TC50, micromolar) for compounds of Formula I are listed in Table 2. The compounds of Formula I were tested as the corresponding trifluoroacetate salt except for Example 1 which was tested as the sulfate salt. For Table 2 below: PMB=polymyxin B as the sulfate salt (Bedford Laboratories, pharmaceutical grade); PMB1=polymyxin B1 as the trifluoroacetate salt; Nona=polymyxin B nonapeptide as the trifluoroacetate salt. PMB1 and Nona were prepared using the solid phase methodology described in the experimental section herein.
(§3) The in vitro antibacterial activity of compounds of Formula I was evaluated by MIC testing according to Clinical and Laboratory Standards Institute (CLSI). See: Clinical and Laboratory Standards Institute. Methods for Dilution Antimicrobial Susceptibility Tests for Bacteria that Grow Aerobically; Approved Standard-Eighth Edition. CLSI document M7-A8 [ISBN 1-56238-689-1]. Clinical and Laboratory Standards Institute, 940 West Valley Road, Suite 1400, Wayne, Pa. 19087-1898 USA, 2006; also Clinical and Laboratory Standards Institute. Performance Standards for Antimicrobial Susceptibility Testing; Twentieth Informational Supplement. CLSI document M100-S20 [ISBN 1-56238-716-2]. Clinical and Laboratory Standards Institute. Methods for Determining Bactericidal Activity of Antimicrobial Agents; Approved Guideline. CLSI document M26-A (ISBN 1-56238-384-1). CLSI, 940 West Valley Road, Suite 1400, Wayne, Pa. 19087-1898 USA, 1999.
(§4) The MIC determination is a standard laboratory method for evaluating the antibacterial activity of a compound. The MIC represents the lowest drug concentration that inhibits visible growth of bacteria following overnight incubation. […] Typically, the drug concentration range is broken down into 2-fold increments (e.g. 0.06 mg/L, 0.12 mg/L, 0.25 mg/L, 0.50 mg/L, 1.0 mg/L, etc.) and the various drug concentrations are all individually incubated overnight with approximately the same number of bacteria. The MIC is then determined by visually inspecting the drug effect at each concentration, and identifying the lowest drug concentration that has inhibited bacterial growth as compared to the drug free control. Typically, bacteria continue to grow at drug concentrations lower than the MIC and don't grow at concentrations at and above the MIC.
(§5) The MIC values described in Table 2 below were derived from assays wherein each test compound was evaluated in duplicate. In cases where the duplicate values varied by 0-2-fold, the lower of the two values was reported below. Generally speaking, if the duplicate values varied by more than 2-fold, the assay was considered non-valid and was repeated until the variation between duplicate runs was ≦2-fold. In line with the CLSI guidelines referred to above, both control organisms and reference compounds were utilized in each MIC assay to provide proper quality control. MIC values generated with these control organisms and reference compounds were required to fall within a defined range for the assay to be considered valid and be included herein. Those skilled in the art will recognize that MIC values can and do vary from experiment to experiment. Generally speaking, it should be recognized that MIC values often vary +/−2-fold from experiment to experiment. While a single MIC is reported for each compound and each microorganism, the reader should not conclude that each compound was only tested once. Several of the compounds were subjected to multiple tests. The data reported in Table 2 is reflective of the compounds relative activity and different MICs may have been generated on these occasions in line with the guidelines described above.
The following bacterial strains were used in these MIC determinations:
KP-3700 is an ESBL+clinical isolate of Klebsiella pneumoniae obtained in 2006; and […]

[11] = system: KP-5016, ESBL+ clinical isolate of Klebsiella pneumoniae (SHV-5); test: Minimum inhibitory concentration (MIC, CLSI), KP-5016; type: cell-based; conditions: K. pneumoniae KP-5016; overnight incubation, lower of duplicate values; trifluoroacetate salt (Example 1 and PMB sulfate)
Method: as §2, §3, §4, §5
The following bacterial strains were used in these MIC determinations: […]

[12] = AB-1649, polymyxin-resistant clinical isolate of
[13] = PA-1646, polymyxin-resistant clinical isolate of
[14] = A. baumannii AB-3167, overnight incubation, lower of duplicate values, trifluoroacetate salt (Example 1 and PMB sulfate)

CC(C)C[C@@H]1NC(=O)[C@@H](Cc2ccccc2)NC(=O)[C@H](CCN)NC(=O)[C@@H](NC(=O)[C@H](CN)NC(=O)[C@@H](NC(=O)[C@H](CCN)NC(=O)c2ccnc(-c3ccccc3)c2)[C@@H](C)O)CCNC(=O)[C@H]([C@@H](C)O)NC(=O)[C@H](CCN)NC(=O)[C@H](CCN)NC1=O [Example 1] ({Isonicotinoyl(2-Ph)}-[Dab]T[Dap][Dab][Dab][dF]L[Dab][Dab]T; lactam 4-C)
AB-3167 MIC ([1]; AB-3167, clinical isolate of): 0.25 µg/mL | AB-1649 MIC [2, 12]: 1 µg/mL | PA01 MIC ([3]; strain): 0.25 µg/mL | PA-1646 MIC [4, 13]: 2 µg/mL | AB-1649 MBC [5, 12]: 1 µg/mL | EC-1 MIC [6]: 0.125 µg/mL | CC50 at 24 h [7]: 95 µM | reduced human renal cytotoxicity compared with PMB [8]: 4-5 fold | PA-1646 MBC [9, 13]: 4 µg/mL

CC[C@H](C)CCCCC(=O)N[C@@H](CCN)C(=O)N[C@H](C(=O)N[C@@H](CN)C(=O)N[C@H]1CCNC(=O)[C@H]([C@@H](C)O)NC(=O)[C@H](CCN)NC(=O)[C@H](CCN)NC(=O)[C@H](CC(C)C)NC(=O)[C@@H](Cc2ccccc2)NC(=O)[C@H](CCN)NC1=O)[C@@H](C)O [Example 43] (X1-[Dab]T[Dap][Dab][Dab][dF]L[Dab][Dab]T; lactam 4-C)
AB-3167 MIC [1, 14]: 0.125 µg/mL | AB-1649 MIC [2, 12]: 4 µg/mL | PA01 MIC ([3]; strain): 0.5 µg/mL | PA-1646 MIC [4, 13]: 1 µg/mL | AB-1649 MBC [5, 12]: 4 µg/mL | EC-1 MIC [6]: 0.125 µg/mL | CC50 at 24 h [7]: 72 µM | reduced human renal cytotoxicity compared with PMB [8]: 3-4 fold | PA-1646 MBC [9, 13]: 2 µg/mL

polymyxin B [PMB, reference compound]
AB-3167 MIC [1, 14]: 0.25 µg/mL | AB-1649 MIC ([2]; A. baumannii AB-1649, overnight incubation, lower of duplicate values, trifluoroacetate salt (Example 1 and PMB sulfate)): 8 µg/mL | PA01 MIC ([3]; P. aeruginosa PA01, overnight incubation, lower of duplicate values, trifluoroacetate salt (Example 1 and PMB sulfate)): 0.5 µg/mL | PA-1646 MIC ([4]; P. aeruginosa PA-1646, overnight incubation, lower of duplicate values, trifluoroacetate salt (Example 1 and PMB sulfate)): 8 µg/mL | KP-3700 MIC [10]: 0.25 µg/mL | AB-1649 MBC ([5]; A. baumannii AB-1649, tested as trifluoroacetate salt (Example 1 and PMB as sulfate salt)): 8 µg/mL | EC-1 MIC [6]: 0.125 µg/mL | CC50 ([8]; hRPTEC, 24 hours treatment, LDH release, Toxic Concentration 50%, read-out: hRPTEC TC50): 20 µM | PA-1646 MBC ([9]; P. aeruginosa PA-1646, tested as trifluoroacetate salt (Example 1 and PMB as sulfate salt)): 32 µg/mL | KP-5016 MIC [11]: 32 µg/mL

Source: patent US20120316105A1, “Polymyxin Derivates Useful As Antibacterial Agents” (priority 2011, published 2012)
